Results as given in patent US12404279B2, “Deubiquitinase inhibitors and methods of use thereof” (Molecure S.A., priority 2021, dated 2025).

Target: full-length USP7 (Homo sapiens (Human), UniProt Q93009)
Assay: Enzymatic assay to determine IC50 of USP7 inhibitors (Ubiquitin-Rhodamine 110 cleavage)
Format: biochemical
Conditions: 0.5 nM USP7, 0.5 μM Ubiquitin-Rhodamine 110, 45 min at 37° C.
Protocol: For the inhibitors disclosed herein, their potency was measured using the following method.
A 45 μl reaction volume containing full-length USP7 (0.5 nM) in 50 mM HEPES pH 7.5, 150 mM NaCl, 1 mM DTT, 1 mg/ml BSA and 0.05% Tween20 was assembled in wells of 96 well half area black flat bottom plates. Test compounds were first dissolved to 25 mM stocks in DMSO and subsequently introduced to enzyme 15 min after USP7 incubation with DTT at room temperature. The enzymatic reaction was started by adding 0.5 μM Ubiquitin-Rhodamine 110 (final concentration) and allowed to proceed for 45 min at 37° C., 250 RPM shaking before Rhodamine fluorescence (485 nm excitation/520 nm emission) was measured using Tecan Spark M10 plate reader.

Chain of full-length USP7 (Q93009 whole entry): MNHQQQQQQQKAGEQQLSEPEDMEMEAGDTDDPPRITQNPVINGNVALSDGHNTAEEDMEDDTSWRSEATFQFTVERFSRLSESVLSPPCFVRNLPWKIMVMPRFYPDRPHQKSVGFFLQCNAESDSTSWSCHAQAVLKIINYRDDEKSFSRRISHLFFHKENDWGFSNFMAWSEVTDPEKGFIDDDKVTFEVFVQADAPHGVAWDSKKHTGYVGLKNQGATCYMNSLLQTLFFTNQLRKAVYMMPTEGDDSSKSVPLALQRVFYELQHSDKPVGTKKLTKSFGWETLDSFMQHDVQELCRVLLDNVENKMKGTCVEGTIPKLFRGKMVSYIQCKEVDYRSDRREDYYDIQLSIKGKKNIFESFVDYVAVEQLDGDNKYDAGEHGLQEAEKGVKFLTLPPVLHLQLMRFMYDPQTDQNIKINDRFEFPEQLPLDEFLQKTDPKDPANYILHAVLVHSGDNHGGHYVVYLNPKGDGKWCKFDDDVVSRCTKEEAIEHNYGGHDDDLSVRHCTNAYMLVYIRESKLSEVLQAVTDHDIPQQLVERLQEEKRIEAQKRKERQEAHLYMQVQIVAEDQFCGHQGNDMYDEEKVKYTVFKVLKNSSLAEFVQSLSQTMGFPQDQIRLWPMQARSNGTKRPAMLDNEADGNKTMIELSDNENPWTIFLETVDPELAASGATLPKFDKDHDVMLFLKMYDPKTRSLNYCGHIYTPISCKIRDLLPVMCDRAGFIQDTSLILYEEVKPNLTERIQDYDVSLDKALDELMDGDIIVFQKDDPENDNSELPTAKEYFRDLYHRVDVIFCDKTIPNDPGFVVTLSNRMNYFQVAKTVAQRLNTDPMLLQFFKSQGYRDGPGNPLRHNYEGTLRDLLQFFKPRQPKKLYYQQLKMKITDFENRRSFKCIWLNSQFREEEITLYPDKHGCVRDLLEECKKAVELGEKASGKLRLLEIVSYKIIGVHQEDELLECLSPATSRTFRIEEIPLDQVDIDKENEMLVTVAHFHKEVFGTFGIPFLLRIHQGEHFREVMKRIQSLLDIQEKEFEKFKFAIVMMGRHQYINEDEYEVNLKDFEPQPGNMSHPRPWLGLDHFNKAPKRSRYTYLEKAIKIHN

| IC50 [nM] | SMILES |
| --- | --- |
| 500 to 1000 | Cc1nc(C#N)cc(-c2ccnc3cc(CN4C(=O)C5C(C4=O)C5(C)C)sc23)c1C(=O)N1CC[C@@H](N)C1 (stereo partly drawn) [Example 8, 5-((R)-3-aminopyrrolidine-1-carbonyl)-4-(2-((6,6-dimethyl-2,4-dioxo-3-azabicyclo[3.1.0]hexan-3-yl)methyl)thieno[3,2-b]pyridin-7-yl)-6-methylpicolinonitrile 2,2,2-trifluoroacetate] |
| 1000 to 10000 | Cc1nc(C#N)cc(-c2ccnc3cc(CN4C(=O)C5C(C4=O)C5(C)C)sc23)c1C(=O)N1CCC(F)(F)C1 (stereo not drawn) [Example 10, 5-(3,3-difluoropyrrolidine-1-carbonyl)-4-(2-((6,6-dimethyl-2,4-dioxo-3-azabicyclo[3.1.0]hexan-3-yl)methyl)thieno[3,2-b]pyridin-7-yl)-6-methylpicolinonitrile 2,2,2-trifluoroacetate] |
| < 500 | Cc1nc(C#N)cc(-c2ccnc3cc(CN4C(=O)C5C(C4=O)C5(C)C)sc23)c1C(=O)N1CC[C@H](O)C1 (stereo partly drawn) [Example 11, 4-(2-((6,6-dimethyl-2,4-dioxo-3-azabicyclo[3.1.0]hexan-3-yl)methyl)thieno[3,2-b]pyridin-7-yl)-5-((S)-3-hydroxypyrrolidine-1-carbonyl)-6-methylpicolinonitrile 2,2,2-trifluoroacetate] |
| 500 to 1000 | Cc1nc(C#N)cc(-c2ccnc3cc(CN4C(=O)C5C(C4=O)C5(C)C)sc23)c1C(=O)N1CC[C@@H](O)C1 (stereo partly drawn) [Example 12, 4-(2-((6,6-dimethyl-2,4-dioxo-3-azabicyclo[3.1.0]hexan-3-yl)methyl)thieno[3,2-b]pyridin-7-yl)-5-((R)-3-hydroxypyrrolidine-1-carbonyl)-6-methylpicolinonitrile 2,2,2-trifluoroacetate] |

Same assay, conditions: at 1 μM of the test compound; given where IC50 not determined yet; read-out: percent value of inhibition of USP7 activity

| inhibition at 1 µM [%] | SMILES |
| --- | --- |
| 20 to 49 | Cc1nc(C#N)cc(-c2ccnc3cc(CN4C(=O)C5C(C4=O)C5(C)C)sc23)c1C(=O)N1CCC(F)(F)CC1 (stereo not drawn) [Example 13, 5-(4,4-difluoropiperidine-1-carbonyl)-4-(2-((6,6-dimethyl-2,4-dioxo-3-azabicyclo[3.1.0]hexan-3-yl)methyl)thieno[3,2-b]pyridin-7-yl)-6-methylpicolinonitrile 2,2,2-trifluoroacetate] |

Same assay, conditions: read-out: percent value of inhibition of USP7 activity

| SMILES | inhibition at 1 µM [%] |
| --- | --- |
| CC1(C)C2C(=O)N(Cc3cc4nccc(-c5cc(C(F)(F)F)n(CC6CNCCO6)n5)c4s3)C(=O)C21 (stereo not drawn) [Example 6, 6,6-dimethyl-3-((7-(1-(morpholin-2-ylmethyl)-5-(trifluoromethyl)-1H-pyrazol-3-yl)thieno[3,2-b]pyridin-2-yl)methyl)-3-azabicyclo[3.1.0]hexane-2,4-dione 2,2,2-trifluoroacetate] | < 20 |
| CC1(C)C2C(=O)N(Cc3cc4nccc(-c5cc(C(F)(F)F)nn5CC5CNCCO5)c4s3)C(=O)C21 (stereo not drawn) [Example 7, 6,6-dimethyl-3-((7-(1-(morpholin-2-ylmethyl)-3-(trifluoromethyl)-1H-pyrazol-5-yl)thieno[3,2-b]pyridin-2-yl)methyl)-3-azabicyclo[3.1.0]hexane-2,4-dione 2,2,2-trifluoroacetate] | < 20 |
| CC1(C)C2C(=O)N(Cc3cc4nccc(-c5cccn5CC5CNCCO5)c4s3)C(=O)C21 (stereo not drawn) [Example 9, 6,6-dimethyl-3-((7-(1-(morpholin-2-ylmethyl)-1H-pyrrol-2-yl)thieno[3,2-b]pyridin-2-yl)methyl)-3-azabicyclo[3.1.0]hexane-2,4-dione 2,2,2-trifluoroacetate] | < 20 |
| Cc1nc(C#N)cc(-c2ccnc3cc(CN4C(=O)C5C(C4=O)C5(C)C)sc23)c1C(=O)NC1CC(F)(F)C1 (stereo not drawn) [Example 14, 6-cyano-N-(3,3-difluorocyclobutyl)-4-(2-((6,6-dimethyl-2,4-dioxo-3-azabicyclo[3.1.0]hexan-3-yl)methyl)thieno[3,2-b]pyridin-7-yl)-2-methylnicotinamide 2,2,2-trifluoroacetate] | < 20 |
